Test results taken from BigSolDB 2.1.

Nc1ncnc2nc[nH]c12
solubility (mole fraction)
Conditions | 278.15 K | 283.15 K | 288.15 K | 293.15 K | 298.15 K | 303.15 K | 308.15 K | 313.15 K | 318.15 K
in DMF | 0.00192 | 0.00205 | 0.00217 | 0.00232 | 0.00246 | 0.00262 | 0.00278 | 0.00295 | 0.00312
in DMSO | – | – | – | 0.0111 | 0.0117 | 0.0124 | 0.0131 | 0.0137 | 0.0144
in NMP | 0.0095 | 0.00971 | 0.0099 | 0.0101 | 0.0103 | 0.0105 | 0.0107 | 0.0109 | 0.0112
in propylene glycol | 0.0106 | 0.0108 | 0.0109 | 0.0111 | 0.0112 | 0.0114 | 0.0115 | 0.0117 | 0.0118
in water | 5.43e-05 | 6.88e-05 | 8.54e-05 | 0.000108 | 0.000134 | 0.000171 | 0.000216 | 0.000264 | 0.000321
